Laboratory results taken from patent US20220096516A1, “OLIGONUCLEOTIDE MOLECULE AND APPLICATION THEREOF IN TUMOR THERAPY” (Ractigen Therapeutics, priority 2019, published 2022).
d = 2'-deoxy (DNA); r = 2'-OH (RNA)

What was measured:
LHPP gene = assay: LHPP mRNA expression by RT-qPCR in cancer cell lines; assay type: cell-based, human; details: 72 h
Description: (§1) 8 LHPP promoter-targeting saRNAs were individually transfected into liver cancer cells at 10 nM for 72 h. In FIG. 6A, the expression level of LHPP mRNA was analyzed by RT-qPCR. In FIG. 6B, cell viability in the saRNA treatment group was evaluated by the CCK-8 method and recorded as a percentage relative to the viability of cells in a control (Mock) treatment group.
8 LHPP promoter-targeting saRNAs were individually transfected into cancer cells at 10 nM for 72 h. In FIG. 7A, the expression level of LHPP mRNA was analyzed by RT-qPCR. In FIG. 7B, cell viability in the saRNA treatment group was evaluated by the CCK-8 method and recorded as a percentage relative to the viability of cells in a control (Mock) treatment group.
In order to further evaluate the effect of LHPP saRNAs in inducing the mRNA expression of the LHPP gene and inhibiting the proliferation of cancer cells, eight screened saRNAs (RAG7-132, RAG7-133, RAG7-139, RAG7-177, RAG7-178, RAG7-694, RAG7-707 and RAG7-892) each were transfected into the liver cancer cell lines Huh7 (Medical Cell Resource Center, Tohoku University, Japan), HepG2 (ATCC), Hep3B (ATCC), Li-7 (Medical Cell Resource Center, Tohoku University, Japan) and SK-HEP-1 (ATCC), a lung cancer cell line A549 (ATCC), a bladder cancer cell line T24 (ATCC), a prostatic cancer cell line PC3 (ATCC), and a glioma cell line U87MG (ATCC). The mRNA expression and cell viability of the transfected cells were measured.

Hep3B cells = assay: Cell viability by CCK-8 method, Hep3B; assay type: cell-based, human; details: 10 nM, 72 h, FIG. 6B
Description: as §1
(§2) The cell viability was detected by the following CCK-8 method: the cCells were plated into a 96-well plate at 3-5×10^3 cells/well, cultured overnight, and transfected with the oligonucleotide duplexes. After 72 hour of transfection, 10 uL of CCK-8 solution (Dojindo Molecular Technologies) was added into each well. After 1 hour of incubation at 37° C., a microplate reader was used to measure absorbances at 450 nm. […]

U87MG transplanted tumor = U87MG transplanted tumor growth in nude mice; set-up: species or system BALB/c nude mice; details: U87MG xenograft, day 13; saRNA (in vivo-jetPEI) 1 mg/kg intratumor days 1, 4, 7, 10; regorafenib 3 mg/kg intragastric daily day 1-12; control 406%
Description: To prepare the saRNA formulation, in vivo-jetPEI (201-10G, Polyplus-transfection, France) was adopted as an saRNA delivery system. The preparation process is briefly described as follows: an saRNA was first diluted in a 10% glucose solution to give a solution A; a required amount of in vivo-jetPEI was diluted in 10% glucose solution to give a solution B; then, equal volumes of the solution A and the solution B were mixed (nitrogen-to-phosphorus ratio: 8; final concentration of glucose: 5%). After mixing the mixture was let to stand under room temperature for 15 minutes for later use.
The glioma cell line U87MG were grown to the logarithmic phase, counted, then subcutaneously inoculated at a concentration of 9×10^7 cells/mL into the right armpit of BALB/c nude mice at 0.1 mL per mouse. […] After the initial administration, the long diameter and short diameter of each tumor were measured with a vernier caliper every two days. The tumor volume was calculated according to the formula V=(l×w^2)/2, wherein 1 represents the longest diameter of the tumor and w represents the diameter parallel to the surface of the tumor and perpendicular to the long diameter. A tumor growth curve and size and morphology of the tumor anatomy were recorded during the administration.

SK-HEP-1 cells = assay: Cell viability by CCK-8 method, SK-HEP-1; assay type: cell-based, human; details: SK-HEP-1, 10 nM, 72 h, FIG. 6B
Description: as §1, §2

RAG7-133: saRNA duplex; sense GCUCUUUGUCCGCUGAUCUTT (SEQ ID NO: 1), antisense AGAUCAGCGGACAAAGAGCTT (SEQ ID NO: 165) (sugars from the 5' end r19 d2, backbone not given here)
expression of LHPP gene (mRNA) (LHPP gene; Hep3B, 10 nM, FIG. 6A): induced the expression of LHPP gene to different degrees
expression of LHPP gene (mRNA) (LHPP gene; HepG2, 10 nM, FIG. 6A): induced the expression of LHPP gene to different degrees
expression of LHPP gene (mRNA) (LHPP gene; Huh7, 10 nM, FIG. 6A): induced the expression of LHPP gene to different degrees
expression of LHPP gene (mRNA) (LHPP gene; Li-7, 10 nM, FIG. 6A): induced the expression of LHPP gene to different degrees
expression of LHPP gene (mRNA) (LHPP gene; PC3, 10 nM, FIG. 7A): induced the expression of LHPP gene to different degrees
expression of LHPP gene (mRNA) (LHPP gene; SK-HEP-1, 10 nM, FIG. 6A): induced the expression of LHPP gene to different degrees
expression of LHPP gene (mRNA) (LHPP gene; T24, 10 nM, FIG. 7A): induced the expression of LHPP gene to different degrees
expression of LHPP gene (mRNA) (LHPP gene; U87MG, 10 nM, FIG. 7A): induced the expression of LHPP gene to different degrees
cell proliferation (cell viability, CCK-8) (Hep3B cells): inhibited cell proliferation
tumor volume increase compared with that at the beginning of treatment (U87MG transplanted tumor): 167%
cell proliferation (cell viability, CCK-8) (SK-HEP-1 cells): inhibited cell proliferation
